According to the supplement of paper PMC8967900:

Tests used:
Assay in all cases: selective drug sensitivity score (sDSS, relative to normal bone marrow) (sDSS (score)); higher = more potent and effective on the cell line relative to normal bone marrow cells
Conditions in all cases: 72 h
MN-60 = test system: MN-60
COG-LL-317 = test system: COG-LL-317
LC4-1 = test system: LC4-1
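Also: ALL cell lines in 384-well plates, five doses spanning 10,000-fold, each plate scaled between vehicle and 100 µmol/L benzalkonium chloride controls, sDSS an adapted area-under-curve metric.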

Row | SMILES | selective drug sensitivity score (MN-60) | selective drug sensitivity score (COG-LL-317) | selective drug sensitivity score (LC4-1)
1 | Cc1[nH]c2ccccc2c1CCNCc1ccc(/C=C/C(=O)NO)cc1 [Panobinostat] (top concentration 1000 nM) | -1.46 | 6.34 | 5.84
2 | COc1ccc2[nH]cc(/C=C3\C(=O)Nc4ccc(NC(=O)CCN5CCCCC5)cc43)c2c1 (top concentration 50000 nM) | 0.28 | 2.58 | -0.42
3 | NC(=O)c1cccc2cn(-c3ccc(C4CCCNC4)cc3)nc12 (stereo not drawn) [Niraparib] (top concentration 10000 nM) | -3.02 | 7.88 | 3.38
4 | Cn1ncnc1[C@H]1c2n[nH]c(=O)c3cc(F)cc(c23)N[C@@H]1c1ccc(F)cc1 [Talazoparib] (top concentration 1000 nM) | -4.92 | 19.7 | 3.18
5 | CCC(C)n1ncn(-c2ccc(N3CCN(c4ccc(OCC5COC(Cn6cncn6)(c6ccc(Cl)cc6Cl)O5)cc4)CC3)cc2)c1=O (stereo not drawn) [Itraconazole] (top concentration 5000 nM) | -2.42 | -2.12 | 2.88
6 | CO[C@@H](C)Cn1c(=O)n(C)c2cnc3ccc(-c4cncc(C(C)(C)O)c4)cc3c21 (top concentration 2500 nM) | 3.88 | 0.78 | 2.68
7 | C=CCn1c(=O)c2cnc(Nc3ccc(N4CCN(C)CC4)cc3)nc2n1-c1cccc(C(C)(C)O)n1 [AZD1775] (top concentration 10000 nM) | 2.74 | 20.5 | 13.7
8 | Cc1cc(Nc2cc(N3CCN(C)CC3)nc(/C=C/c3ccccc3)n2)n[nH]1 [ENMD-2076] (top concentration 10000 nM) | -1.46 | 5.14 | 7.64
9 | O=C(O)c1ccc(-c2c[nH]c3ncc(-c4ccccc4)cc23)cc1C1CCCC1 (top concentration 10000 nM) | -1.44 | 2.36 | -0.94
10 | COc1ccc(-c2nc(N3CCOCC3)c3sc(CN(C)c4ncc(C(=O)NO)cn4)cc3n2)cn1 [Fimepinostat (CUDC-907)] (top concentration 10000 nM) | -1.22 | 7.58 | 8.68
11 | COc1ccc(C[C@H](NC(=O)[C@H](C)NC(=O)CN2CCOCC2)C(=O)N[C@@H](Cc2ccccc2)C(=O)[C@@]2(C)CO2)cc1 [ONX-0914] (top concentration 10000 nM) | -2.9 | 4.7 | -1.2
12 | CC(=O)Nc1ccc(C(=O)Nc2ccccc2N)cc1 [Tacedinaline] (top concentration 1000 nM) | -0.02 | -0.02 | 1.18
13 | CCN(CC)CCCC(C)Nc1c2ccc(Cl)cc2nc2ccc(OC)cc12 (stereo not drawn) [Mepacrine] (top concentration 50000 nM) | -5.7 | -0.5 | -4
14 | CN(C)c1cc2c(cc1Sc1nc3c(N)nccc3n1CCNCC(C)(C)C)OCO2 [CUDC-305] (top concentration 10000 nM) | 1.42 | 7.62 | -0.98
15 | Cc1cn(-c2cc(NC(=O)c3ccc(C)c(Nc4nccc(-c5cccnc5)n4)c3)cc(C(F)(F)F)c2)cn1 [Nilotinib] (top concentration 10000 nM) | 0 | 0 | 9.1
16 | CCC/C=C/C=C/C(=O)O[C@H]1/C(=C/C(=O)OC)C[C@H]2C[C@H]([C@@H](C)O)OC(=O)C[C@H](O)C[C@@H]3C[C@H](OC(C)=O)C(C)(C)[C@](O)(C[C@@H]4C/C(=C/C(=O)OC)C[C@H](/C=C/C(C)(C)[C@]1(O)O2)O4)O3 [Bryostatin_1] (top concentration 100 nM) | -7.12 | -6.82 | 30.6
17 | NC(=O)NO [Hydroxyurea] (top concentration 1000000 nM) | -0.04 | 15.4 | 5.26
18 | CCNC(=O)c1noc(-c2cc(C(C)C)c(O)cc2O)c1-c1ccc(CN2CCOCC2)cc1 [Luminespib] (top concentration 1000 nM) | -4.6 | 7.4 | -1.4
19 | Cn1c(=O)n(-c2ccc(C(C)(C)C#N)cc2)c2c3cc(-c4cnc5ccccc5c4)ccc3ncc21 [Dactolisib] (top concentration 1000 nM) | 8.66 | 2.26 | 5.16
20 | CC(C)C[C@H](NC(=O)[C@H](CCc1ccccc1)NC(=O)CN1CCOCC1)C(=O)N[C@@H](Cc1ccccc1)C(=O)N[C@@H](CC(C)C)C(=O)[C@@]1(C)CO1 [Carfilzomib] (top concentration 1000 nM) | -7.34 | 1.06 | 2.36
21 | Nc1nc2[nH]cnc2c(=S)[nH]1 [Thioguanine] (top concentration 10000 nM) | 10 | 23 | 12.4

Row | SMILES | selective drug sensitivity score (MN-60) | selective drug sensitivity score (COG-LL-317) | selective drug sensitivity score (LC4-1)
22 | C=CC(=O)Nc1cc2c(Nc3ccc(F)c(Cl)c3)ncnc2cc1OCCCN1CCOCC1 [Canertinib] (top concentration 10000 nM) | -4.14 | 2.96 | 2.76
23 | CC(C)C[C@H](NC(=O)[C@H](Cc1ccccc1)NC(=O)c1cnccn1)B(O)O [Bortezomib] (top concentration 1000 nM) | -3.38 | 3.02 | 3.32
24 | O=C(/C=C\n1cnc(-c2cc(C(F)(F)F)cc(C(F)(F)F)c2)n1)NNc1ccccn1 [Verdinexor] (top concentration 1000 nM) | 2.24 | 12.5 | 1.94
25 | CNC(=O)c1cc(Oc2ccc(NC(=O)Nc3ccc(Cl)c(C(F)(F)F)c3)c(F)c2)ccn1 [Regorafenib] (top concentration 10000 nM) | 1.34 | 2.54 | 6.74
26 | COC(=O)C[C@](O)(CCCC(C)(C)O)C(=O)O[C@@H]1C(OC)=C[C@]23CCCN2CCc2cc4c(cc2[C@H]13)OCO4 [Omacetaxine] (top concentration 10000 nM) | -3.88 | 7.12 | 1.52
27 | O=C(NOC[C@H](O)CO)c1ccc(F)c(F)c1Nc1ccc(I)cc1F (top concentration 1000 nM) | -3.56 | -1.66 | 6.24
28 | CC(=O)OC[C@H]1O[C@@H]([S-])[C@H](OC(C)=O)[C@@H](OC(C)=O)[C@@H]1OC(C)=O.CCP(CC)CC.[Au+] [Auranofin] (top concentration 2500 nM) | -2.76 | 3.44 | 6.34
29 | C[C@@H]1CN(CC(=O)Nc2ccc3c(c2)Cc2cccc(-c4cc(=O)cc(N5CCOCC5)o4)c2S3)C[C@H](C)O1 (top concentration 25000 nM) | -2.18 | -1.78 | 4.12
30 | Cc1ccc(Nc2nccc(N(C)c3ccc4c(C)n(C)nc4c3)n2)cc1S(N)(=O)=O [Pazopanib] (top concentration 10000 nM) | -0.86 | -1.26 | 5.24
31 | CCS(=O)(=O)c1cccc(-c2cc(C(=O)NC3CCN(C)CC3)c(C)c3[nH]c4ncc(C)cc4c23)c1 [TAK-901] (top concentration 1000 nM) | -2.64 | 11.7 | 10.8
32 | Nc1cc(F)ccc1NC(=O)/C=C/c1cnn(C/C=C/c2ccccc2)c1 [RGFP966] (top concentration 10000 nM) | 3.04 | 16.6 | 12.2
33 | Cc1cccc(CC(=O)N2CCc3c2ccc(-c2cn(C)c4ncnc(N)c24)c3F)n1 (top concentration 2500 nM) | 1.82 | -0.68 | 4.72
34 | O=C(CCCCCCC(=O)Nc1ccccc1)NO [Vorinostat] (top concentration 10000 nM) | 0.8 | 8.2 | 8.2
35 | COc1ccc(-c2ccc3ncc4c(c3c2)n(-c2ccc(N3CCNCC3)c(C(F)(F)F)c2)c(=O)n4C)cn1 [NVP-BGT226] (top concentration 1000 nM) | 5.72 | 0.72 | 2.22
36 | C[C@]12C=CC(=O)C=C1CC[C@@H]1[C@@H]2[C@@H](O)C[C@@]2(C)[C@H]1CC[C@]2(O)C(=O)CO [Prednisolone] (top concentration 10000 nM) | -3 | 2.6 | 8.4
37 | CO[C@H]1C(=O)[C@]2(C)[C@@H](OC)C[C@H]3OC[C@@]3(OC(C)=O)[C@H]2[C@H](OC(=O)c2ccccc2)[C@]2(O)C[C@H](OC(=O)[C@H](O)[C@@H](NC(=O)OC(C)(C)C)c3ccccc3)C(C)=C1C2(C)C [Cabazitaxel] (top concentration 1000 nM) | -5.32 | 26.2 | 22.4
38 | Cc1cc([C@@H](C)Nc2ccccc2C(=O)O)c2nc(N3CCOCC3)cc(=O)n2c1 [AZD-6482] (top concentration 2500 nM) | 0.02 | -0.18 | 3.42
39 | Nc1nc(NC2CC2)cc(-c2cccc(Cl)c2Cl)n1 [TH588] (top concentration 25000 nM) | -0.58 | 7.72 | 8.72
40 | Cc1nn(C)c(COc2ccc(N3CCN(S(=O)(=O)N(C)C)CC3)cc2)c1-c1cccc2c(CCCOc3cccc4ccccc34)c(C(=O)O)n(CCN3CCOCC3)c12 (top concentration 50000 nM) | 3.16 | 2.16 | 6.56
41 | COc1cccc2c1c(O)c(C(=O)N(C)c1ccc(C(F)(F)F)cc1)c(=O)n2C [Tasquinimod] (top concentration 10000 nM) | -0.22 | 0.28 | -0.42
